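Grown in 96-well plates, cells were treated for 48 hours with each compound at five concentrations. Insufficient inhibition: endpoint recorded as highest concentration tested. GI50 = concentration required for 50% inhibition of growth. The concentration for full growth arrest is given as TGI.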
How the values were obtained:
Test in all cases: NCI-60 cell line screen, 48 h
MDA-N = system: MDA-N
HS 578T breast = system: HS 578T breast
RXF-631 renal = system: RXF-631 renal
DMS 114 small cell lung = system: DMS 114 small cell lung
LXFL 529 NSCLC = system: LXFL 529 NSCLC
KM20L2 colon = system: KM20L2 colon
BT-549 breast = system: BT-549 breast
DLD-1 colon = system: DLD-1 colon
HOP-18 NSCLC = system: HOP-18 NSCLC

C[C@]12CCC(=O)C(O)=C1CC[C@@H]1[C@@H]2CC[C@]2(C)C(=O)CC[C@@H]12 showed a TGI (MDA-N) greater than 100 µM, a TGI (HS 578T breast) greater than 100 µM and a TGI (RXF-631 renal) greater than 100 µM. The TGI (DMS 114 small cell lung) was greater than 100 µM, the TGI (LXFL 529 NSCLC) was greater than 100 µM and the TGI (KM20L2 colon) was greater than 100 µM. It also gave a TGI (BT-549 breast) greater than 100 µM and a TGI (DLD-1 colon) greater than 100 µM.
For CCOP(=O)(OCC)/C(C#N)=C/c1ccco1, the TGI (RXF-631 renal) was greater than 100 µM, the TGI (DMS 114 small cell lung) was greater than 100 µM and the TGI (LXFL 529 NSCLC) was greater than 100 µM. For the same compound, the TGI (HOP-18 NSCLC) was greater than 100 µM and the TGI (DLD-1 colon) was greater than 100 µM.
CC1NOC(=O)C1N=Nc1ccccc1Cl (centres undefined) showed a TGI (RXF-631 renal) greater than 100 µM, a TGI (DMS 114 small cell lung) greater than 100 µM and a TGI (LXFL 529 NSCLC) greater than 100 µM. It also gave a TGI (KM20L2 colon) greater than 100 µM, a TGI (HOP-18 NSCLC) greater than 100 µM and a TGI (DLD-1 colon) greater than 100 µM.
CCOC(CN=c1nc(N(C)C)ss1)OCC gave a TGI (MDA-N) of 24.8 µM, a TGI (HS 578T breast) greater than 82.5 µM and a TGI (RXF-631 renal) of 32.5 µM. The TGI (DMS 114 small cell lung) was 32.9 µM, the TGI (LXFL 529 NSCLC) was 20.5 µM and the TGI (KM20L2 colon) was greater than 72.5 µM. The TGI (HOP-18 NSCLC) was greater than 100 µM, the TGI (BT-549 breast) was 55.5 µM and the TGI (DLD-1 colon) was greater than 50.8 µM.
COC(=O)c1nc(NC#N)[nH]c(=O)c1C was tested, and the TGI (RXF-631 renal) was greater than 100 µM, the TGI (DMS 114 small cell lung) was greater than 100 µM and the TGI (LXFL 529 NSCLC) was greater than 100 µM. For the same compound, the TGI (KM20L2 colon) was greater than 100 µM, the TGI (HOP-18 NSCLC) was greater than 100 µM and the TGI (DLD-1 colon) was greater than 100 µM.
In the case of CCOC(=O)C1C(=O)c2ccccc2CN1Cc1ccccc1 (centres undefined), the TGI (RXF-631 renal) is reported as greater than 100 µM, the TGI (DMS 114 small cell lung) is reported as greater than 100 µM and the TGI (LXFL 529 NSCLC) is reported as greater than 100 µM. For the same compound, the TGI (KM20L2 colon) was greater than 100 µM, the TGI (HOP-18 NSCLC) was greater than 100 µM and the TGI (DLD-1 colon) was greater than 100 µM.
In the case of O=C(c1ccccc1)c1c(C(=O)c2ccccc2)c(-c2ccccc2)c2c(-c3ccccc3)sc(-c3ccccc3)c2c1-c1ccccc1, the TGI (RXF-631 renal) is reported as greater than 100 µM, the TGI (DMS 114 small cell lung) is reported as greater than 100 µM and the TGI (LXFL 529 NSCLC) is reported as greater than 100 µM. For the same compound, the TGI (KM20L2 colon) was greater than 100 µM and the TGI (DLD-1 colon) was greater than 100 µM.
Work on CCOC(=O)C(=O)Nc1c(N(CC)CC)n2ccccc2nc1=O yielded a TGI (RXF-631 renal) greater than 100 µM, a TGI (DMS 114 small cell lung) greater than 100 µM and a TGI (LXFL 529 NSCLC) greater than 100 µM. The TGI (KM20L2 colon) was greater than 100 µM and the TGI (DLD-1 colon) was greater than 100 µM.
With O=C(O)c1cc2c(cn1)[nH]c1ccccc12 the TGI (DMS 114 small cell lung) was greater than 100 µM, the TGI (LXFL 529 NSCLC) was greater than 100 µM and the TGI (KM20L2 colon) was greater than 100 µM. It also gave a TGI (HOP-18 NSCLC) greater than 100 µM and a TGI (DLD-1 colon) greater than 100 µM.
COc1ccc2ccc([Se]c3ccc4ccc(OC)cc4c3)cc2c1 gave a TGI (DMS 114 small cell lung) greater than 100 µM, a TGI (LXFL 529 NSCLC) greater than 100 µM and a TGI (KM20L2 colon) greater than 100 µM. The TGI (HOP-18 NSCLC) was greater than 100 µM and the TGI (DLD-1 colon) was greater than 100 µM.
In the case of CC1=Cc2cc3[n-]c(cc4nc(cc5[n-]c(cc1n2)cc5C)C(C)=C4CCC(=O)O)c(CCC(=O)O)c3C.[Pd+2], the GI50 (MDA-N) is reported as greater than 100 µM, the TGI (MDA-N) is reported as greater than 100 µM and the GI50 (DMS 114 small cell lung) is reported as 3.18 µM. It also gave a TGI (DMS 114 small cell lung) of 11.2 µM, a GI50 (LXFL 529 NSCLC) of 2.86 µM and a TGI (LXFL 529 NSCLC) of 11.1 µM. For the same compound, the GI50 (KM20L2 colon) was 17.5 µM, the TGI (KM20L2 colon) was 44.3 µM and the GI50 (HOP-18 NSCLC) was 15.8 µM. It also gave a TGI (HOP-18 NSCLC) of 30.6 µM, a GI50 (BT-549 breast) of 4.89 µM and a TGI (BT-549 breast) greater than 100 µM. The GI50 (DLD-1 colon) was 14.5 µM and the TGI (DLD-1 colon) was 35.8 µM.
In the case of COC(=O)c1c(CC#N)cccc1CC#N, the TGI (RXF-631 renal) is reported as greater than 100 µM, the TGI (DMS 114 small cell lung) is reported as greater than 100 µM and the TGI (LXFL 529 NSCLC) is reported as greater than 100 µM. For the same compound, the TGI (KM20L2 colon) was greater than 100 µM and the TGI (DLD-1 colon) was greater than 100 µM.
CC(C(=O)Oc1ccc2ccccc2c1-c1c(O)ccc2ccccc12)c1ccccc1 (centres undefined) gave a TGI (RXF-631 renal) of 33.7 µM, a TGI (DMS 114 small cell lung) of 29.6 µM and a TGI (LXFL 529 NSCLC) of 27.1 µM.
Work on Cc1c2cc[nH]c(=O)c2cc2c(=O)c3cnccc3[nH]c12 yielded a TGI (DMS 114 small cell lung) greater than 100 µM, a TGI (LXFL 529 NSCLC) greater than 100 µM and a TGI (KM20L2 colon) greater than 100 µM. For the same compound, the TGI (HOP-18 NSCLC) was greater than 100 µM and the TGI (DLD-1 colon) was greater than 100 µM.
For CN(c1ccccc1)C(c1ccccc1)C(O)c1ccccc1 (centres undefined), the TGI (RXF-631 renal) was 43.2 µM, the TGI (DMS 114 small cell lung) was 47.5 µM and the TGI (LXFL 529 NSCLC) was 43.4 µM. It also gave a TGI (KM20L2 colon) of 35.7 µM, a TGI (HOP-18 NSCLC) of 33.2 µM and a TGI (DLD-1 colon) of 47.5 µM.
Work on O=S1(=O)C[C@@H](O)[C@H](O)CS1 yielded a TGI (DMS 114 small cell lung) greater than 100 µM, a TGI (LXFL 529 NSCLC) greater than 100 µM and a TGI (KM20L2 colon) greater than 100 µM. For the same compound, the TGI (HOP-18 NSCLC) was greater than 100 µM and the TGI (DLD-1 colon) was greater than 100 µM.
With CCOC(=O)C(C)c1cc(C2(C)OCCO2)c(C)o1 (centres undefined) the TGI (RXF-631 renal) was greater than 100 µM, the TGI (DMS 114 small cell lung) was greater than 100 µM and the TGI (LXFL 529 NSCLC) was greater than 100 µM. The TGI (KM20L2 colon) was greater than 100 µM, the TGI (HOP-18 NSCLC) was greater than 100 µM and the TGI (DLD-1 colon) was greater than 100 µM.
Compound CC(=O)OCC1OC(n2c(=O)n(-c3ccccc3)c(=O)c3ccccc32)C(OC(C)=O)C(OC(C)=O)C1OC(C)=O (centres undefined) has a TGI (RXF-631 renal) greater than 100 µM, a TGI (DMS 114 small cell lung) greater than 100 µM and a TGI (LXFL 529 NSCLC) greater than 100 µM. The TGI (KM20L2 colon) was greater than 100 µM, the TGI (HOP-18 NSCLC) was greater than 100 µM and the TGI (DLD-1 colon) was greater than 100 µM.
Nc1c(-c2nc3ccccc3[nH]2)sc(=S)n1-c1ccccc1 was tested, and the TGI (RXF-631 renal) was greater than 100 µM, the TGI (DMS 114 small cell lung) was greater than 100 µM and the TGI (LXFL 529 NSCLC) was greater than 100 µM. For the same compound, the TGI (DLD-1 colon) was greater than 100 µM.
O=C(O)C12C3CCCC1C2CC3 (centres undefined) gave a TGI (RXF-631 renal) greater than 100 µM, a TGI (DMS 114 small cell lung) greater than 100 µM and a TGI (LXFL 529 NSCLC) greater than 100 µM. The TGI (KM20L2 colon) was greater than 100 µM, the TGI (HOP-18 NSCLC) was greater than 100 µM and the TGI (DLD-1 colon) was greater than 100 µM.
O=C1C(=O)N(c2ccc(Cl)c(Cl)c2)C(=O)C(=O)C1c1nc2ccccc2o1 gave a TGI (RXF-631 renal) greater than 100 µM, a TGI (LXFL 529 NSCLC) greater than 100 µM and a TGI (KM20L2 colon) greater than 100 µM. It also gave a TGI (DLD-1 colon) greater than 100 µM.
In the case of O=C1OC2(c3ccccc3Oc3ccccc32)c2ccccc21, the TGI (DMS 114 small cell lung) is reported as greater than 100 µM, the TGI (LXFL 529 NSCLC) is reported as greater than 100 µM and the TGI (KM20L2 colon) is reported as greater than 100 µM. For the same compound, the TGI (HOP-18 NSCLC) was greater than 100 µM and the TGI (DLD-1 colon) was greater than 100 µM.
For COC(=O)C1=C(O)C(O)=C(C(=O)OC)C1, the TGI (DMS 114 small cell lung) was greater than 100 µM, the TGI (LXFL 529 NSCLC) was greater than 100 µM and the TGI (KM20L2 colon) was greater than 100 µM. For the same compound, the TGI (HOP-18 NSCLC) was greater than 100 µM and the TGI (DLD-1 colon) was greater than 100 µM.
c1ccc(N=C2c3ccccc3C3=NCCCN32)cc1 was tested, and the TGI (RXF-631 renal) was greater than 100 µM, the TGI (DMS 114 small cell lung) was greater than 100 µM and the TGI (LXFL 529 NSCLC) was greater than 100 µM. For the same compound, the TGI (KM20L2 colon) was greater than 100 µM and the TGI (DLD-1 colon) was greater than 100 µM.

From PubChem BioAssay (NCI)
